Test results: PubChem BioAssay (NCI)
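Results reflect a 48-hour exposure of cells in 96-well plates to compound at five concentrations. Here, GI50 denotes the concentration required for 50% inhibition of growth. At the TGI there is no net growth.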

Tests used:
Assay in all cases: DTP human tumour cell line panel, 48 h
SN12C renal = system: SN12C renal
SNB-75 CNS = system: SNB-75 CNS
MCF7 breast = system: MCF7 breast
CAKI-1 renal = system: CAKI-1 renal
COLO 205 colon = system: COLO 205 colon
EKVX NSCLC = system: EKVX NSCLC
SK-MEL-5 melanoma = system: SK-MEL-5 melanoma
HS 578T breast = system: HS 578T breast
U251 CNS = system: U251 CNS
A549 NSCLC = system: A549 NSCLC
NCI-H226 lung = system: NCI-H226 lung
PC-3 prostate = system: PC-3 prostate
UACC-62 melanoma = system: UACC-62 melanoma
NCI/ADR-RES ovarian = system: NCI/ADR-RES ovarian
SK-MEL-2 melanoma = system: SK-MEL-2 melanoma
T-47D breast = system: T-47D breast
MDA-MB-231 breast = system: MDA-MB-231 breast
SF-295 CNS = system: SF-295 CNS
MALME-3M melanoma = system: MALME-3M melanoma
SK-MEL-28 melanoma = system: SK-MEL-28 melanoma
NCI-H522 lung = system: NCI-H522 lung
HOP-62 NSCLC = system: HOP-62 NSCLC
786-0 renal = system: 786-0 renal
TK-10 renal = system: TK-10 renal
IGROV1 ovarian = system: IGROV1 ovarian
KM12 colon = system: KM12 colon
K-562 leukemia = system: K-562 leukemia
MDA-MB-435 = system: MDA-MB-435
UO-31 renal = system: UO-31 renal
SF-268 CNS = system: SF-268 CNS
SF-539 CNS = system: SF-539 CNS
RXF 393 renal = system: RXF 393 renal
A498 renal = system: A498 renal
NCI-H460 lung = system: NCI-H460 lung
HOP-92 NSCLC = system: HOP-92 NSCLC
OVCAR-3 ovarian = system: OVCAR-3 ovarian
SR leukemia = system: SR leukemia
HCT-116 colon = system: HCT-116 colon
M14 melanoma = system: M14 melanoma
HCT-15 colon = system: HCT-15 colon
NCI-H23 lung = system: NCI-H23 lung
SNB-19 CNS = system: SNB-19 CNS
OVCAR-4 ovarian = system: OVCAR-4 ovarian
ACHN renal = system: ACHN renal
UACC-257 melanoma = system: UACC-257 melanoma
MDA-MB-468 breast = system: MDA-MB-468 breast
MOLT-4 leukemia = system: MOLT-4 leukemia
OVCAR-8 ovarian = system: OVCAR-8 ovarian
DU-145 prostate = system: DU-145 prostate
BT-549 breast = system: BT-549 breast
CCRF-CEM leukemia = system: CCRF-CEM leukemia
RPMI-8226 leukemia = system: RPMI-8226 leukemia
LOX IMVI melanoma = system: LOX IMVI melanoma
HCC-2998 colon = system: HCC-2998 colon
SW-620 colon = system: SW-620 colon
SK-OV-3 ovarian = system: SK-OV-3 ovarian
HT29 colon = system: HT29 colon
OVCAR-5 ovarian = system: OVCAR-5 ovarian

Structure (SMILES): Fc1ccc(F)c(CNc2nc(SCCN3CCOCC3)nc3c2cnn3CC(Cl)c2ccc(Br)cc2)c1 (stereo unspecified)
- GI50 (SN12C renal): 3.22 µM
- TGI (SN12C renal): > 100 µM
- GI50 (SNB-75 CNS): 2.28 µM
- TGI (SNB-75 CNS): > 100 µM
- GI50 (MCF7 breast): 2.5 µM
- TGI (MCF7 breast): 8.54 µM
- GI50 (CAKI-1 renal): 3.66 µM
- TGI (CAKI-1 renal): > 100 µM
- GI50 (COLO 205 colon): 2.13 µM
- TGI (COLO 205 colon): 4.98 µM
- GI50 (EKVX NSCLC): 3.9 µM
- TGI (EKVX NSCLC): > 100 µM
- GI50 (SK-MEL-5 melanoma): 1.62 µM
- TGI (SK-MEL-5 melanoma): 3.01 µM
- GI50 (HS 578T breast): 2.6 µM
- TGI (HS 578T breast): > 100 µM
- GI50 (U251 CNS): 3.77 µM
- TGI (U251 CNS): > 100 µM
- GI50 (A549 NSCLC): 3.09 µM
- TGI (A549 NSCLC): > 100 µM
- GI50 (NCI-H226 lung): 2.63 µM
- TGI (NCI-H226 lung): 8.3 µM
- GI50 (PC-3 prostate): 2.63 µM
- TGI (PC-3 prostate): 62.6 µM
- GI50 (UACC-62 melanoma): 1.75 µM
- TGI (UACC-62 melanoma): 3.73 µM
- GI50 (NCI/ADR-RES ovarian): 3.13 µM
- TGI (NCI/ADR-RES ovarian): > 100 µM
- GI50 (SK-MEL-2 melanoma): 2.04 µM
- TGI (SK-MEL-2 melanoma): 5.04 µM
- GI50 (T-47D breast): 2.81 µM
- TGI (T-47D breast): 38.1 µM
- GI50 (MDA-MB-231 breast): 3.11 µM
- TGI (MDA-MB-231 breast): 18.6 µM
- GI50 (SF-295 CNS): 3.34 µM
- TGI (SF-295 CNS): > 100 µM
- GI50 (MALME-3M melanoma): 1.89 µM
- TGI (MALME-3M melanoma): 5.15 µM
- GI50 (SK-MEL-28 melanoma): 2.84 µM
- TGI (SK-MEL-28 melanoma): > 100 µM
- GI50 (NCI-H522 lung): 3.51 µM
- TGI (NCI-H522 lung): 91.3 µM
- GI50 (HOP-62 NSCLC): 6.31 µM
- TGI (HOP-62 NSCLC): > 100 µM
- GI50 (786-0 renal): 2.62 µM
- TGI (786-0 renal): 17.3 µM
- GI50 (TK-10 renal): 5.24 µM
- TGI (TK-10 renal): > 100 µM
- GI50 (IGROV1 ovarian): 5.03 µM
- TGI (IGROV1 ovarian): > 100 µM
- GI50 (KM12 colon): 3.72 µM
- TGI (KM12 colon): > 100 µM
- GI50 (K-562 leukemia): 1.77 µM
- TGI (K-562 leukemia): > 100 µM
- GI50 (MDA-MB-435): 2.91 µM
- TGI (MDA-MB-435): 10.4 µM
- GI50 (UO-31 renal): 2.87 µM
- TGI (UO-31 renal): > 100 µM
- GI50 (SF-268 CNS): 4.27 µM
- TGI (SF-268 CNS): > 100 µM
- GI50 (SF-539 CNS): 3.57 µM
- TGI (SF-539 CNS): > 100 µM
- GI50 (RXF 393 renal): 1.41 µM
- TGI (RXF 393 renal): 4.83 µM
- GI50 (A498 renal): 4.2 µM
- TGI (A498 renal): > 100 µM
- GI50 (NCI-H460 lung): 3.52 µM
- TGI (NCI-H460 lung): > 100 µM
- GI50 (HOP-92 NSCLC): 3.03 µM
- TGI (HOP-92 NSCLC): 23.9 µM
- GI50 (OVCAR-3 ovarian): 5.71 µM
- TGI (OVCAR-3 ovarian): > 100 µM
- GI50 (SR leukemia): 3.63 µM
- TGI (SR leukemia): > 100 µM
- GI50 (HCT-116 colon): 2.61 µM
- TGI (HCT-116 colon): > 100 µM
- GI50 (M14 melanoma): 3.21 µM
- TGI (M14 melanoma): > 100 µM
- GI50 (HCT-15 colon): 1.76 µM
- TGI (HCT-15 colon): 6.15 µM
- GI50 (NCI-H23 lung): 4.91 µM
- TGI (NCI-H23 lung): > 100 µM
- GI50 (SNB-19 CNS): 5.34 µM
- TGI (SNB-19 CNS): > 100 µM
- GI50 (OVCAR-4 ovarian): 3.22 µM
- TGI (OVCAR-4 ovarian): > 100 µM
- GI50 (ACHN renal): 3.65 µM
- TGI (ACHN renal): > 100 µM
- GI50 (UACC-257 melanoma): 3.25 µM
- TGI (UACC-257 melanoma): 65 µM
- GI50 (MDA-MB-468 breast): 1.96 µM
- TGI (MDA-MB-468 breast): 4.88 µM
- GI50 (MOLT-4 leukemia): 2.58 µM
- TGI (MOLT-4 leukemia): > 100 µM
- GI50 (OVCAR-8 ovarian): 3.77 µM
- TGI (OVCAR-8 ovarian): > 100 µM
- GI50 (DU-145 prostate): 6.12 µM
- TGI (DU-145 prostate): > 100 µM
- GI50 (BT-549 breast): 2.38 µM
- TGI (BT-549 breast): 5.96 µM
- GI50 (CCRF-CEM leukemia): 2.81 µM
- TGI (CCRF-CEM leukemia): > 100 µM
- GI50 (RPMI-8226 leukemia): 2.66 µM
- TGI (RPMI-8226 leukemia): > 100 µM
- GI50 (LOX IMVI melanoma): 2.5 µM
- TGI (LOX IMVI melanoma): 7.65 µM
- GI50 (HCC-2998 colon): 4.13 µM
- TGI (HCC-2998 colon): > 100 µM
- GI50 (SW-620 colon): 2.78 µM
- TGI (SW-620 colon): 13.8 µM
- GI50 (SK-OV-3 ovarian): 8.7 µM
- TGI (SK-OV-3 ovarian): > 100 µM
- GI50 (HT29 colon): 1.14 µM
- TGI (HT29 colon): 2.68 µM
- GI50 (OVCAR-5 ovarian): 4.59 µM
- TGI (OVCAR-5 ovarian): > 100 µM
